From patent publication EP4345091A1, “BENZOIC ACID DERIVATIVES, METHODS AND USES THEREOF” (priority 2022, dated 2024)
In brackets after ≈: the same amount, converted by molar mass. Where two headings read alike, the source gives them in different places.

Columns and labels:
[1] = system: Mycobacterium tuberculosis H37Rv; experiment: MIC and MBC by broth microdilution against M. tuberculosis H37Rv; assay type: cell-based, Mycobacterium tuberculosis H37Rv (ATCC 27294)
[2] = Stability in Mycobacterium smegmatis homogenate (enzymatic hydrolysis); conditions: pH 7.4; for half-life at 500 µM: mycobacterium smegmatis homogenate; for half-life: Mycobacterium smegmatis
[3] = system: Mycobacterium smegmatis homogenate; experiment: as above; conditions: Mycobacterium smegmatis homogenate, 37°C
[4] = pH 7.4
Description: (§3) Chemical hydrolysis was evaluated in phosphate buffer at physiological pH (7.4) to determine its influence in enzymatic studies.
(§4) 1176 µL pH 7.4 phosphate buffer or pH 5.9 phosphate buffer, 18 µL ACN and 6 µL of a 10-1 M stock solution of the prodrug in ACN were mixed in a 2mL vial. The solution was incubated at 37 °C and 50 µL aliquots were removed, mixed with 450 µL of ACN: H2O 1:1. The solution was analysed by HPLC, the remaining substrate and the correspondent acid were both measured.
(§5) The eluant was a mixture of acetonitrile (60%/70%) and aqueous phosphate buffer with 5% of KH2PO4/H3PO4 0.025M (40%/30%). The flow rate was always 1 mL/1 min and wavelength was set at 230 nm. All quantifications were evaluated using calibration curves from stock solutions.
(§6) The initial substrate concentration was 5 x 10^-4 M in all stability assays. All incubations were carried out at pH 7.4 and 37 °C under agitation using the phosphate buffer described above as diluting agent. […] Acetonitrile (2%) was used in all studies to ensure adequate solubilization of the substrates.

[5] = Stability in human plasma (enzymatic hydrolysis)
[6] = Chemical stability in phosphate buffer pH 7.4
Description: as §3, §4, §5, §6

[7] = system: human monocytic cell line THP-1 (ATCC56 TIB202); experiment: Cytotoxicity assay in THP-1 cells; assay type: cell-based; conditions: toxicity/activity index: ratio LC50 (THP-1) / MIC (M. tuberculosis H37Rv)
Description: (§1) Cytotoxicity results were obtained through lethal concentration for 50% of the cell population, LC50. Table 6. Results obtained from cytotoxicity assays for the esters, represented by LD50 in µg/mL and comparison with MIC values, in µg/mL with toxicity/activity (T/A) index.
(§2) The T/A index quantitatively is the ratio between the lethal concentration (LC50) given by the minimum inhibitory concentration (MIC).

[8] = Cytotoxicity assay in THP-1 cells; assay type: cell-based, human; conditions: human, THP-1 cells, read-out: LC50 (the source's name)
Description: as §1, §2

M. bovis BCG = experiment: microbe, parasite or virus in culture; assay type: cell-based; conditions: Mycobacterium tuberculosis variant bovis BCG
M. smegmatis mc2 155 = experiment: MIC and MBC against M. smegmatis; assay type: cell-based; conditions: Mycolicibacterium smegmatis, MC2155
[9] = system: Mycobacterium Bovis BCG infecting human macrophages THP-1; assay type: cell-based; conditions: compound concentration 2 µg/ml
[10] = Mycobacterium tuberculosis, H37RV, M. tuberculosis H37Rv, Table 3
[11] = Mycobacterium tuberculosis, H37RV, M. tuberculosis H37Rv, Tables 3, 6 and 7
[12] = Mycobacterium tuberculosis, H37RV, M. tuberculosis H37Rv, Table 3, read-out: MBC
[13] = Mycobacterium tuberculosis, H37RV, M. tuberculosis H37Rv, Tables 3, 6 and 7, read-out: MIC
[14] = THP-1 monocytic cells, lethal concentration for 50% of the cell population
[15] = Mycobacterium tuberculosis, H37RV
[16] = lethal concentration for 50% of the cell population

Row | SMILES | half-life at 500 µM [2] [h] | Degradation (%) 24h [3] [%] | Degradation (%) 48h [3] [%] | Degradation (%) 24h [5] [%] | Degradation (%) 48h [5] [%] | Degradation (%) 72h [5] [%] | MBC [1, 12] [µg/mL] | MIC [1, 13] [µg/mL] | Degradation (%) 24h [6] [%] | Degradation (%) 48h [6] [%] | Degradation (%) 72h [6] [%] | Degradation (%) 168h [6] [%] | Degradation (%) 332h [6] [%] | T/A [7] | half-life [2] [h] | also measured
1 | CCCCCCCCCCCCOC(=O)c1ccc([N+](=O)[O-])cc1 [Compound 2e] | 79.4 ± 4.7 | 19 | 34 |  |  |  |  |  |  |  |  |  |  |  |  | MBC [1, 10]: 64 µg/mL (≈ 191 µM); MIC [1, 11]: 8 µg/mL (≈ 23.8 µM); Degradation (%) 24h [4]: 0%; Degradation (%) 48h [4]: 0%; Degradation (%) 72h [4]: 0%; Degradation (%) 168h [4]: 1%; Degradation (%) 332h [4]: 1%
2 | CCCCOC(=O)c1ccc([N+](=O)[O-])cc1 [Compound 2a] | 3.46 ± 0.49 | 99 | 100 |  |  |  |  |  |  |  |  |  |  |  |  | MBC [1, 10]: 128 µg/mL (≈ 573 µM); MIC [1, 11]: 64 µg/mL (≈ 287 µM); Degradation (%) 24h [4]: 0%; Degradation (%) 48h [4]: 1%; Degradation (%) 72h [4]: 1%; Degradation (%) 168h [4]: 2%; Degradation (%) 332h [4]: 4%
3 | CCCCNC(=O)c1cc([N+](=O)[O-])cc(C(F)(F)F)c1 [Compound 8a, N-butyl-3-nitro-5-(trifluoromethyl)-benzamide] |  | 23 | 41 | 0 | 0 | 0 | 2 (≈ 6.89 µM) | 2 (≈ 6.89 µM) | 0 | 0 | 0 | 0 | 0 | 21 | 63.8 ± 4.1 | CC50 [8, 14]: 41 µg/mL (≈ 141 µM)
4 | CCCCCCOC(=O)c1cc([N+](=O)[O-])cc(C(F)(F)F)c1 [Compound 4b, Hexyl 3-nitro-5-(trifluoromethyl)benzoate] |  | 15 | 27 | 72 | 94 | 98 | 1020 (≈ 3210 µM) | 1020 (≈ 3210 µM) |  |  |  |  |  | 0.62 | 105 ± 10 | CC50 [8, 14]: 639 µg/mL (≈ 2000 µM)
5 | CCCCCCCCOC(=O)c1ccc([N+](=O)[O-])cc1 [Compound 2c, Octyl 4-nitrobenzoate] |  | 35 | 58 | 100 | 100 | 100 | 128 (≈ 458 µM) | 8 (≈ 28.6 µM) | 0 | 1 | 1 | 3 | 6 | 82 | 39 ± 7.7 | CC50 [8, 14]: 657 µg/mL (≈ 2350 µM)
6 | CCCCOC(=O)c1cc([N+](=O)[O-])cc(C(F)(F)F)c1 [Compound 4a, Butyl 3-nitro-5-(trifluoromethyl)benzoate] |  | 95 | 100 | 95 | 100 | 100 | 1020 (≈ 3520 µM) | 1020 (≈ 3520 µM) | 5 | 12 | 16 | 35 | 60 | 0.54 | 5.36 ± 0.44 | CC50 [8, 14]: 552 µg/mL (≈ 1900 µM)
7 | CCCCCCOC(=O)c1ccc([N+](=O)[O-])cc1 [Compound 2b] | 11.5 ± 0.6 | 77 | 94 |  |  |  |  |  |  |  |  |  |  |  |  | MBC [1, 10]: 128 µg/mL (≈ 509 µM); MIC [1, 11]: 64 µg/mL (≈ 255 µM)
8 | CCCCCCCCCCCCOC(=O)c1ccccc1 [Compound 1e, Dodecyl benzoate] |  | 16 | 30 | 3 | 6 | 9 | 512 (≈ 1760 µM) | 256 (≈ 881 µM) | 0 | 0 | 0 | 0 | 0 |  | 91.4 ± 3.1 | 
9 | CCCCCCOC(=O)c1ccccc1 [Compound 1b, Hexyl benzoate] |  | 100 | 100 | 94 | 100 | 100 |  |  |  |  |  |  |  |  | 0.21 ± 0.01 | 
10 | CCCCCCCCCCCCCCCCNC(=O)c1cc([N+](=O)[O-])cc([N+](=O)[O-])c1 [Compound 7g, N-hexadecyl-3.5-dinitrobenzamide] |  | 0 | 0 |  |  |  |  |  |  |  |  |  |  |  |  | MBC ([1]; M. tuberculosis H37Rv, Table 4): 2 µg/mL (≈ 4.59 µM); MIC ([1]; M. tuberculosis H37Rv, Table 4): 2 µg/mL (≈ 4.59 µM); MBC [1, 15]: 2 µg/mL (≈ 4.59 µM); MIC [1, 15]: 2 µg/mL (≈ 4.59 µM); MBC (M. bovis BCG): 4 µg/mL (≈ 9.18 µM); MIC (M. bovis BCG): 2 µg/mL (≈ 4.59 µM); MBC (M. smegmatis mc2 155): > 64 µg/mL; MIC (M. smegmatis mc2 155): 32 µg/mL (≈ 73.5 µM); CC50 ([8]; n/d (no toxicity at maximum tested dose)): > 512 µg/mL
11 | CCCCCCOC(=O)c1cc([N+](=O)[O-])cc([N+](=O)[O-])c1 [Compound 3b] | 80.9 ± 5.5 | 19 | 34 | 74 | 93 | 98 |  |  |  |  |  |  |  | 17 |  | CFU x10^4 ([9]; Time 0 days): 9.2 CFUs per mL; CFU x10^4 ([9]; Time 1 day): 14.58 CFUs per mL; CFU x10^4 ([9]; Time 3 days): 11.87 CFUs per mL; CFU x10^4 ([9]; Time 7 days): 9.83 CFUs per mL; CC50 [8, 16]: 528 µg/mL (≈ 1780 µM)
12 | CCCCOC(=O)c1cc([N+](=O)[O-])cc([N+](=O)[O-])c1 [Compound 3a] | 6.32 ± 0.44 | 93 | 99 | 86 | 98 | 100 |  |  | 10 | 14 | 18 | 40 | 65 | 14 |  | MBC [1, 15]: 128 µg/mL (≈ 477 µM); MIC [1, 15]: 32 µg/mL (≈ 119 µM); CC50 [8, 16]: 456 µg/mL (≈ 1700 µM)
13 | CCCCNC(=O)c1ccc([N+](=O)[O-])cc1 [Compound 6a, N-butyl-4-nitrobenzamide] |  | 20 | 35 | 12 | 23 | 32 | 256 (≈ 1150 µM) | 128 (≈ 576 µM) | 0 | 0 | 0 | 0 | 0 |  | 76.5 ± 5.3 | 
14 | CCCCCCCCOC(=O)c1ccccc1 [Compound 1c, Octyl benzoate] | 1.96 ± 0.02 | 100 | 100 | 45 | 71 | 84 | > 256 | 256 (≈ 1090 µM) | 0 | 0 | 0 | 0 | 0 | 6 |  | CC50 [8, 16]: 1650 µg/mL (≈ 7020 µM)
15 | CCCCNC(=O)c1cc([N+](=O)[O-])cc([N+](=O)[O-])c1 [Compound 7a, N-butyl-3.5-dinitrobenzamide] | 22.9 ± 1.5 | 52 | 77 | 0 | 0 | 0 |  |  | 0 | 0 | 0 | 0 | 0 | 52 |  | MBC (M. bovis BCG): 1 µg/mL (≈ 3.74 µM); MIC (M. bovis BCG): 0.5 µg/mL (≈ 1.87 µM); CC50 [8, 16]: 26 µg/mL (≈ 97.3 µM)
16 | CCCCCCNC(=O)c1ccc([N+](=O)[O-])cc1 [Compound 6b, N-hexyl-4-nitrobenzamide] |  | 17 | 32 |  |  |  | 64 (≈ 256 µM) | 32 (≈ 128 µM) |  |  |  |  |  |  | 87.2 ± 5.8 | 
17 | CCCCOC(=O)c1ccccc1 [Compound 1a, Butyl benzoate] |  | 100 | 100 | 100 | 100 | 100 | > 256 | > 256 | 0 | 0 | 0 | 1 | 2 |  | 0.2 ± 0.01 | 
